Consider one compound from ChEMBL document CHEMBL1126995, “Nonpeptide -turn mimetics of enkephalin” (1993).

Test [1] addresses Mu-type opioid receptor (Rattus norvegicus) (UniProt P33535). In words: Binding affinity against mu opioid receptors from rat brain (minus cerebellum) using [3H]DAMGO (2.0 nM) at 10 uM. Format: tissue-based.
In test [2] the target is Delta-type opioid receptor (Rattus norvegicus) (UniProt P33533). In words: Binding affinity against Opioid receptor delta 1 from rat brain using (1.0 nM [3H]DTLET or 1.0 nM [3H]-DSLET) at 6 uM.
Sequence of Delta-type opioid receptor (Rattus norvegicus) (P33533 whole entry): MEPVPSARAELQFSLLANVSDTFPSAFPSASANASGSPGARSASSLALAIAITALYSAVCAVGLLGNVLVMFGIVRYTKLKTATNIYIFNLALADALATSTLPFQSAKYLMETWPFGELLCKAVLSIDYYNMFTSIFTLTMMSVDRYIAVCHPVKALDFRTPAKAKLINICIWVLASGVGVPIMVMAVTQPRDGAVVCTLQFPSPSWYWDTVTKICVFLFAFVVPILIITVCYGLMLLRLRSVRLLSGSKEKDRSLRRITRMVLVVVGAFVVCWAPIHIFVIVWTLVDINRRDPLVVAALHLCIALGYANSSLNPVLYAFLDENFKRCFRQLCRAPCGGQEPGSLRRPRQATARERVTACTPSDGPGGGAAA
For another test, the species on record is Mus musculus. In words: Tested for the analgesic activity in mouse writhing assay. Format: functional.

Sequence of Mu-type opioid receptor (Rattus norvegicus) (P33535 whole entry): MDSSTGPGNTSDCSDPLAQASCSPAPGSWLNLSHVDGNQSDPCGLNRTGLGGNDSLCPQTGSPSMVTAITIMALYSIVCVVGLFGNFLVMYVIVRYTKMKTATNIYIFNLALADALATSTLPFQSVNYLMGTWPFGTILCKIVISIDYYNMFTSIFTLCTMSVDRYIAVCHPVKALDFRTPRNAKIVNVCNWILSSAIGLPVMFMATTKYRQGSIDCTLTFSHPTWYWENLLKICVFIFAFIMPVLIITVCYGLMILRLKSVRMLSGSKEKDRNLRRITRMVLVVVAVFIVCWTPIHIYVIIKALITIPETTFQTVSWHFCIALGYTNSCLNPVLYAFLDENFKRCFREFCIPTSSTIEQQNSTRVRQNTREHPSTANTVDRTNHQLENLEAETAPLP

`COC(=O)C[C@@H]1CC[C@H](Cc2ccccc2)NC(=O)CCC(CNC(=O)[C@@H](N)Cc2ccc(O)cc2)C(=O)N1` (stereo partly drawn): the Displacement in test [1] came to 53%; in test [2], 50%. Besides, in the test filed under Mus musculus, the ED50 was less than 10 µg/mL.
